Measured values as given in patent US20160075689A1, “POLYMERASE, ENDONUCLEASE, AND HELICASE INHIBITORS AND METHODS OF USING THEREOF” (THE BOARD OF TRUSTEES OF THE UNIVERSITY OF ARKANSAS, priority 2013, published 2016).
Values joined by “and” are separate entries in the source; they are usually repeats but may differ in a detail not shown here. Identical values can stand only once.

Tests used:
[1] = target: T1, EndoG (Homo sapiens, UniProt Q14249); assay: High-throughput EndoG screening assay; format: biochemical
T1 sequence (Q14249 49-297): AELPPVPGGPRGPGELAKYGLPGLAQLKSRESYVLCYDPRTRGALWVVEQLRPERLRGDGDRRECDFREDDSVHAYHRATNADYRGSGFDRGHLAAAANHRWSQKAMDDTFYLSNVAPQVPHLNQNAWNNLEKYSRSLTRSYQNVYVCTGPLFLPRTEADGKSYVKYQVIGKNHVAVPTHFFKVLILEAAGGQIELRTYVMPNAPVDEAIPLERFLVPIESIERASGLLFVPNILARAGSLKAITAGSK
Protocol: A reaction mixture was prepared in each well of a white 96-well plate (Costar, Corning, N.Y.) as follows: 0.25 μM Cy5.5-labeled oligonucleotide (described in US provisional patent filed Oct. 19, 2012, Ser. No. 61/716,097) 0.3 mM MgCl2, 10 mM Tris-HCl, pH 7.4, 1 μl DMSO containing 5 or 50 ng of test compound, and nuclease-free water for a total reaction volume of 100 μl. The background (negative control) and uninhibited EndoG samples were measured using DMSO only, or DMSO containing recombinant EndoG (4 μg/ml), respectively. After addition of EndoG, fluorescence intensity was kinetically measured on a Bio-Tek Synergy 4.0 plate reader at 37° C. and mean velocity (mRFU/min) within 20 min was automatically calculated by the plate reader. The background was subtracted prior to the calculation of EndoG activity (%). The percent of EndoG activity was calculated from the mean velocity of a compound divided by the mean velocity of DMSO with recombinant EndoG, and the obtained value multiplied by 100.

[2] = tested on: EndoG-expressing PC3 cells; assay: Cytoprotection against Docetaxel-induced cell death, LDH release and TUNEL assays; format: cell-based, human; conditions: Docetaxel 80 μM, inhibitor 50 μM
Protocol: Docetaxel is an anti-cancer drug used to treat prostate cancer. Human invasive prostate cancer PC3 cells are known to be resistant to anticancer drugs. […] The resulting EndoG-expressing PC3 cells were exposed with Docetaxel (80 μM) in the absence or presence of the inhibitors, PNR-3-80 or PNR-3-82 (50 μM each). The cell death was measured by using two methods, LDH release assay and TUNEL assay. […]

[3] = target: T2, HCV NS3 helicase (Hepatitis C virus genotype 1b, UniProt P26663); assay: Fluorescence-based helicase assay; format: biochemical; conditions: IC50 for inhibition of NS3 helicase, mean ± standard deviation of three data sets
T2 construct: analyze the helicase activity of NS3 helicase in the presence of the compounds; made in house
Protocol: A library of compounds was screened using a previously validated quantitative assay that measures helicase activity over time. The assay relies upon helicase-catalyzed displacement of a fluorescently-labeled oligonucleotide (FIG. 13A). The concentration of enzyme and compounds used was 250 nM and 20 μM respectively. The experiments were performed in triplicate. […] Three potential helicase inhibitors were identified using the fluorescence based assay. […] The inhibitor compounds identified in our screen were ITBA-3-79, ITBA-3-82 and ITBA-3-85 (FIG. 14A). […] The IC50 value for ITBA-3-79, ITBA-3-82 and ITBA-3-85-mediated inhibition of NS3 helicase ranged˜20 μM (FIG. 14C). The ATPase activity of NS3 (50 μM) was analyzed in the presence of ITBA-3-79, ITBA-3-82 and ITBA-3-85 using a coupled spectrophotometric assay (Raney and Benkovic 1995, (FIG. 15). The protease activity of NS3 was analyzed in the presence of ITBA-3-79, ITBA-3-82 and ITBA-3-85 by using 50 nM NS3-4A and 100 nM substrate (Ac-Asp-Glu-Asp-EDANS-Glu-Glu-Abu-L-Lactoyl-Ser-Lys DABCYL-NH2, FIG. 15. The NS3 helicase activity was analyzed in the presence of 25 μM ITBA-3-79, ITBA-3-82 and ITBA-3-85 (FIG. 16).
A fluorescence based quantitative assay that measures helicase activity over time was employed to screen the compounds. The concentration of enzyme and compounds used was 250 nM and 20 μM respectively. Helicase catalyzes the unwinding of a FAM-labeled dsDNA and the resulting increase in fluorescence is plotted (λex-485 nm; λem, −528 nm). The slope of the initial part of the plot was used to calculate the percentage helicase activity. […] The IC50 value for ITBA-3-79, ITBA-3-82 and ITBA-3-85-mediated inhibition of NS3 helicase was determined using the same assay.

[4] = target: NS3-4A (Hepatitis C virus genotype 1b, UniProt P26663); assay: NS3 protease activity assay; format: biochemical, HCV; conditions: 25 μM compound, 50 nM NS3-4A, 100 nM substrate
Protocol: The protease activity of NS3 was analyzed in the presence of 25 μM ITBA-3-79, ITBA-3-82 or ITBA-3-85 by using 50 nM NS3-4A and 100 nM substrate (Ac-Asp-Glu-Asp-EDANS-Glu-Glu-Abu-L-Lactoyl-Ser-Lys DABCYL-NH2). The emission spectra of EDANS and the absorption spectra of DABCYL overlap making the peptide internally quenched. Cleaving of the substrate by the protease results in an increase in fluorescence that can be measured (λex−355 nm; λem, −500 nm). Telapravir (10 μM) was used as a positive control.

[5] = tested on: LDH; assay: LDH activity in NRK-52E cell extract; format: biochemical; conditions: 0.1 μM and 10 μM
Protocol: (§1) As a follow up to Example 8, the effects of the EndoG inhibitors PNR-3-80 and PNR-3-82, at 0.1 μM and 10 μM each, on the activities of four other enzymes including RNase A, protease, LDH, and SOD in NRK-52E cell extract were examined. NRK-52E cells were grown to ˜80% confluence in […]. The medium was aspirated and the cells were rinsed with ice cold 1×PBS, pH 7.4. The cells were lysed in 50 mM Tris-HCl, pH 7.4, 150 mM NaCl, 1% Triton X-100 for 10 min on ice and then briefly sonicated. Cell debris was removed by centrifugation at 13,000×g for 10 min at 4° C. The supernatant was collected and stored at −80° C. until use. LDH, Protease, Superoxide dismutase (SOD), and Ribonuclease A (RNase A) activities were measured by using CytoTox 96® Non-Radioactive Cytotoxicity Assay kit (Promega, Madison, Wis.), Protease Fluorescent Detection kit (Sigma-Aldrich, Saint Louis, Mo.), SOD determination kit (Sigma-Aldrich, Saint Louis, Mo.), and Ribonuclease A Detection kit (Sigma-Aldrich, Saint Louis, Mo.), respectively, according to the manufacturer's instructions.

[6] = tested on: RNase A; assay: Ribonuclease A activity in NRK-52E cell extract; format: biochemical; conditions: 0.1 μM and 10 μM
Protocol: as §1

T2 sequence (P26663 1027-1657): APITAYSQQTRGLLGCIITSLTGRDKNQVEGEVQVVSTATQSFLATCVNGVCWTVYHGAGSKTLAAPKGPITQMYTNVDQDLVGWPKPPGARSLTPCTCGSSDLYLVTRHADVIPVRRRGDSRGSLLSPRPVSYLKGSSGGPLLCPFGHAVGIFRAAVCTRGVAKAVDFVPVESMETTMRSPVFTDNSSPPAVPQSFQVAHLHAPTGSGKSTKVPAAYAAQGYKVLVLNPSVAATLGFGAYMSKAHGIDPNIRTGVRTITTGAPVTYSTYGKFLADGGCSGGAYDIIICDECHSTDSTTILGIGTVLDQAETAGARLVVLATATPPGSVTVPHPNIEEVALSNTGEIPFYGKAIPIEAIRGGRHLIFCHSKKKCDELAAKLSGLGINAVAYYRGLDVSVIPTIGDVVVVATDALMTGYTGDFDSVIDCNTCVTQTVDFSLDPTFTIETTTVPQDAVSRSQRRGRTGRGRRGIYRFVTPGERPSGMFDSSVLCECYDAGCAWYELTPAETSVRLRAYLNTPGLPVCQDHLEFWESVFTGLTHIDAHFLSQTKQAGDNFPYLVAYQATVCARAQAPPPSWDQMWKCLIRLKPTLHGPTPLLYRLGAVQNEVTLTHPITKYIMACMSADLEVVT
Sequence of NS3-4A (P26663 1027-1657): as above
Sequence of NS3-4A (P26663 1658-1711): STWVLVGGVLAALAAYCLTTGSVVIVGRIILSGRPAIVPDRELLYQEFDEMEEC

SMILES: COc1ccc2c(c1)c(C=C1C(=O)NC(=S)NC1=O)cn2C(=O)c1ccc2ccccc2c1 [PNR-3-82]
- remaining activity at 1 µM ([1]; 20 min, compound 1 μM, read-out: % EndoG activity in the presence of the compound): 21.8%
- IC50 ([1]; IC50 against EndoG, EndoG screening assay): 0.613 µM and 0.61 µM
- cytoprotection against Docetaxel-induced cell death [2]: cytoprotective
- IC50 [3]: ~20 µM and 21.4 µM
- NS3 protease activity [4]: do not block protease activity
- LDH activity [5]: none of the two tested compounds had any inhibiting activity
- RNase A activity [6]: none of the two tested compounds had any inhibiting activity
